{"source": "patent US20260355137A1", "about": "“NOVEL OPHTHALMIC FORMULATION” (FERTIS INDIA PVT LTD, priority 2022, published 2026)", "assay_type_in_all_cases": "in vivo, New Zealand rabbit", "key": {"[1]": {"system": "cataract and intraocular pressure/glaucoma in induced rabbit eye", "experiment": "Overall efficacy in cataract reduction and reducing intraocular pressure", "settings": "for overall efficacy (in words): second study, 0.5% rosmarinic acid (G2), 0.25% caffeic acid (G6)", "method": "(§1) An illustrative ophthalmic formulation for treatment of eye disease is set forth below: The formulations provided herein below are tested in cataract induced New Zealand rabbits, and the results are discussed herein below.\nThe following preclinical studies were conducted in rabbit model to test the efficacy of various active ingredients.\n(§2) Cataract was induced by injecting 0.5% Methyl Cellulose, which is replaced by aqueous humor in the rabbit eye (i.e., 0.2 mL of Aqueous humor was withdrawn and the same 0.2 mL of 0.5% Methyl cellulose was injected as a replacement). Cataract was observed within 3-4 days of 0.5% Methyl cellulose replacement. Cataract induction was performed to left eye and right eye was served as a control.\n(§3) Rabbits were observed by ophthalmoscope and slit lamp once in three days for cataract confirmation. Intraocular pressure was measured with a tonometer once in three days for the confirmation of glaucoma."}, "[2]": {"system": "cataract induced left eye: lens", "experiment": "Microscopic observations (histopathology) of lens (Table 12)", "method": "as §1, §2\n(§4) All surviving animals were euthanized on Day 29 by overdose of Thiopental Sodium. Before scheduled euthanasia, the animals were fasted overnight (water allowed) and terminal body weights were recorded. Animals were subjected to detailed macroscopic observation during necropsy. Both right (untreated/uninduced) and left (treated/induced) eyes were collected and cornea and lens were separated, preserved in Davidson fluid. Cornea and lens selected for histopathological evaluation were processed, embedded and sections were cut at 3-5 μm thickness, Sections were placed on grease-free slides and stained with Hematoxylin and Eosin. A 5-step grading system of minimum, mild, moderate, marked and severe will be used to rank microscopic findings for comparison among groups. Data was compiled based on incidences and severity of changes."}, "[3]": {"system": "intraocular pressure, induced left eye", "experiment": "Intraocular pressure, tonometer (Table 13)", "set-up": "unit not given beside the values", "settings": "left eye induced/treated", "method": "as §2, §3\n(§5) Intra-ocular pressures were measured in animals in each group once in three days using a Tonometer. The readings were documented for each eye separately."}, "[4]": {"system": "cataract induced left eye: lens and cornea", "experiment": "Microscopic examination (histopathology) of lens and cornea (Table 16)", "method": "as §1, §2, §4"}, "[5]": {"system": "cataract induced left eye", "experiment": "Macroscopic examination, cataract induced left eye (Tables 14-15)", "method": "as §1, §2, §3"}, "[6]": {"system": "intraocular pressure, glaucoma-induced left eye", "experiment": "Intraocular pressure, tonometer (Table 17)", "settings": "for Intraocular pressure, Mean, Left eye: Left (induced) eye; for Intraocular pressure, Mean, Left eye / Intraocular pressure, Mean, Right eye: male, 6 animals/group", "method": "as §2, §3, §5"}, "[7]": {"system": "cataract induced left eye", "experiment": "Macroscopic examination, cataract induced left eye (cinnamic acid derivatives, Tables 10-11)", "settings": "left eye (cataract induced), macroscopic", "method": "as §1, §2, §3"}, "[8]": {"settings": "left eye (cataract induced), lens"}, "[9]": {"settings": "left eye (cataract induced), lens, number of animals"}}, "note": "Entries after “also recorded” stand apart in the source; their conditions may differ.", "data": [{"smiles": "O=C(O)/C=C/c1ccc(O)c(O)c1", "note": "[Caffeic acid]", "values": [{"measurement": "overall efficacy (in words)", "setting": "[1]", "value": "showed promise"}, {"measurement": "overall efficacy (in words)", "setting": "[1]; listed as caffeic acid", "value": "shown to be the best"}, {"measurement": "overall efficacy / order of efficacy (in words)", "setting": "[1]; third study, cataract reduction and reducing intraocular pressure, highest to lowest", "value": "showed the best results, with remarkable efficacy not only in cataract reduction but also in addressing glaucoma; also recorded: Caffeic Acid G3>Epigallocatechin Gallate G4>Encapsulated Feruloyl Tyramine G5>Ferulic Acid G6>Rosmarinic Acid+Caffeic Acid G2"}, {"measurement": "histopathological findings, lens (in words)", "setting": "[2]; Table 12, G2 0.5% rosmarinic acid, G6 0.25% caffeic acid", "value": "a higher incidence of lenticular degeneration"}, {"measurement": "Within Normal Histological Limits, incidence", "setting": "[2]; left eye (cataract induced)", "value": "0/6"}, {"measurement": "Epithelial proliferation, incidence", "setting": "[2]; [8]", "value": "3/6"}, {"measurement": "Epithelial proliferation: Absent, incidence", "setting": "[2]; [8]", "value": "3/6"}, {"measurement": "Lenticular Degeneration, incidence", "setting": "[2]; [8]", "value": "6/6"}, {"measurement": "Liquefaction, incidence", "setting": "[2]; [8]", "value": "4/6"}, {"measurement": "Liquefaction: Absent, incidence", "setting": "[2]; [8]", "value": "2/6"}, {"measurement": "Epithelial proliferation: Mild, incidence", "setting": "[2]; [9]", "value": 1}, {"measurement": "Epithelial proliferation: Minimal, incidence", "setting": "[2]; [9]", "value": 1}, {"measurement": "Epithelial proliferation: Moderate, incidence", "setting": "[2]; [9]", "value": 1}, {"measurement": "Liquefaction: Mild, incidence", "setting": "[2]; [9]", "value": 1}, {"measurement": "Liquefaction: Minimal, incidence", "setting": "[2]; [9]", "value": 2}, {"measurement": "Liquefaction: Moderate, incidence", "setting": "[2]; [9]", "value": 1}, {"measurement": "Intraocular Pressure, mean", "setting": "[3]; Day 3", "value": 90.35}, {"measurement": "Intraocular Pressure, mean", "setting": "[3]; Day 6", "value": 63.22}, {"measurement": "Intraocular Pressure, mean", "setting": "[3]; Day 9", "value": 62.17}, {"measurement": "Intraocular Pressure, mean", "setting": "[3]; Day 12", "value": 65.93}, {"measurement": "Intraocular Pressure, mean", "setting": "[3]; Day 15", "value": 45.45}, {"measurement": "Intraocular Pressure, mean", "setting": "[3]; Day 18", "value": 45.73}, {"measurement": "Intraocular Pressure, mean", "setting": "[3]; Day 21", "value": 41.50}, {"measurement": "Intraocular Pressure, mean", "setting": "[3]; Day 24", "value": 38.93}, {"measurement": "Intraocular Pressure, mean", "setting": "[3]; Day 27", "value": 32.12}, {"measurement": "Intraocular Pressure, mean", "setting": "[3]; Day 30", "value": 30.78}, {"measurement": "Intraocular Pressure, mean", "setting": "[3]; Day 33", "value": "26.60↓↓"}, {"measurement": "cataract efficacy, histopathology (in words)", "setting": "[4]; Table 16", "value": "fully regenerated in 5 out of 6 animals, from severe degeneration to a minimal scale; also recorded: One animal exhibited complete recovery"}, {"measurement": "Lens, Liquefaction: Minimal, incidence", "setting": "[4]; left eye induced", "value": "5/6"}, {"measurement": "No abnormality (histopathology), incidence", "setting": "[4]; left eye induced", "value": "1/6"}, {"measurement": "cataract efficacy, macroscopic (in words)", "setting": "[5]; Table 15", "value": "all 6 animals were completely recovered, and no cataract was observed at all"}, {"measurement": "No Abnormality Detected, incidence", "setting": "[5]; left eye (cataract induced), macroscopic", "value": "6/6"}, {"measurement": "Intraocular pressure, Mean, Left eye", "setting": "[6]; Day 3", "value": 41.50, "unit": "mmHg"}, {"measurement": "Intraocular pressure, Mean, Left eye", "setting": "[6]; Day 6", "value": 23.89, "unit": "mmHg"}, {"measurement": "Intraocular pressure, Mean, Left eye", "setting": "[6]; Day 9", "value": 21.61, "unit": "mmHg"}, {"measurement": "Intraocular pressure, Mean, Left eye", "setting": "[6]; Day 12", "value": 25.33, "unit": "mmHg"}, {"measurement": "Intraocular pressure, Mean, Left eye", "setting": "[6]; Day 15", "value": 25.11, "unit": "mmHg"}, {"measurement": "Intraocular pressure, Mean, Left eye", "setting": "[6]; Day 18", "value": 29.56, "unit": "mmHg"}, {"measurement": "Intraocular pressure, Mean, Left eye", "setting": "[6]; Day 21", "value": 29.94, "unit": "mmHg"}, {"measurement": "Intraocular pressure, Mean, Left eye", "setting": "[6]; Day 25", "value": 24.78, "unit": "mmHg"}, {"measurement": "Intraocular pressure, Mean, Left eye", "setting": "[6]; Day 28, ↓↓ = Significantly low at P ≤ 0.01 compared to respective control", "value": "21.11↓↓ mmHg"}, {"measurement": "Intraocular pressure, Mean, Right eye", "setting": "[6]; Day 3", "value": 15.83, "unit": "mmHg"}, {"measurement": "Intraocular pressure, Mean, Right eye", "setting": "[6]; Day 6", "value": 19.11, "unit": "mmHg"}, {"measurement": "Intraocular pressure, Mean, Right eye", "setting": "[6]; Day 9", "value": 16.61, "unit": "mmHg"}, {"measurement": "Intraocular pressure, Mean, Right eye", "setting": "[6]; Day 12", "value": 16.94, "unit": "mmHg"}, {"measurement": "Intraocular pressure, Mean, Right eye", "setting": "[6]; Day 15", "value": 14.61, "unit": "mmHg"}, {"measurement": "Intraocular pressure, Mean, Right eye", "setting": "[6]; Day 18", "value": 15.44, "unit": "mmHg"}, {"measurement": "Intraocular pressure, Mean, Right eye", "setting": "[6]; Day 21", "value": 15.28, "unit": "mmHg"}, {"measurement": "Intraocular pressure, Mean, Right eye", "setting": "[6]; Day 25", "value": 17.17, "unit": "mmHg"}, {"measurement": "Intraocular pressure, Mean, Right eye", "setting": "[6]; Day 28", "value": 17.11, "unit": "mmHg"}, {"measurement": "intraocular pressure following treatment", "setting": "[6]; induced left eye, 28-day treatment regimen, 0.5%", "value": 21.11, "unit": "mmHg"}, {"measurement": "mean intraocular pressure initially measured", "setting": "[6]; induced left eye, six animals, within three days", "value": 41.5, "unit": "mmHg"}, {"measurement": "Opacity, cornea and red discoloured, with diffuse opacity: Moderate, incidence", "setting": "[7]", "value": "1/6"}, {"measurement": "Opacity, cornea, diffuse: Mild, incidence", "setting": "[7]", "value": "1/6"}, {"measurement": "Opacity, cornea, diffuse: Minimal, incidence", "setting": "[7]", "value": "1/6"}, {"measurement": "Opacity, cornea, diffuse: Moderate, incidence", "setting": "[7]", "value": "1/6"}, {"measurement": "No Abnormality Detected, incidence", "setting": "[7]; animals affected/6", "value": "1/6"}]}]}
